Experiments:
Experiment in all cases: AUC of viability dose-response curve (% viability x log10 dose units); higher = less sensitive
Details in all cases: 48 h
P12-Ichikawa = system: P12-Ichikawa
In short: (§1)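 Leukemia cells adapted to each medium were seeded at 500 or 1000 cells/well in 1536-well plates and dosed with library compounds in DMSO at 11 threefold doses from 47 μM to 0.79 nM for 48 h at 37°C. CellTiter-Glo One luminescence was normalised per plate to DMSO and cell-free wells, then fitted with a four-parameter log-logistic model over log10 doses. Area under the curve was taken from this fit by the trapezoidal rule, with curves above full viability scaled and curves failing quality control removed.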

NOMO1 = system: NOMO1
In short: as §1

SEM cells = system: SEM cells
In short: as §1

[1] = RPMI 5 mM glucose + 10% dialyzed FBS

Structure (SMILES)	AUC of viability dose-response curve (P12-Ichikawa; HPLM + 10% dialyzed FBS)	AUC of viability dose-response curve (P12-Ichikawa; RPMI 5 mM glucose + 10% FBS)	AUC of viability dose-response curve (P12-Ichikawa; [1])	AUC of viability dose-response curve (NOMO1; HPLM + 10% dialyzed FBS)	AUC of viability dose-response curve (NOMO1; RPMI 5 mM glucose + 10% FBS)	AUC of viability dose-response curve (NOMO1; [1])	AUC of viability dose-response curve (SEM cells; HPLM + 10% dialyzed FBS)	AUC of viability dose-response curve (SEM cells; RPMI 5 mM glucose + 10% FBS)	AUC of viability dose-response curve (SEM cells; [1])
COc1cc2nccc(Oc3ccc(NC(=O)Nc4ccc(F)cc4F)c(F)c3)c2cc1OC	419	401	395	413	414	429	–	–	–
C[C@H]1CN(C[C@@H](C)O1)CC(=O)NC2=CC=C3SC4=C(CC3=C2)C=CC=C4\C5=C\C(=O)\C=C(/O5)N6CCOCC6	–	–	–	397	439	433	–	–	–
CSC1=CC(=CC=C1)NC2=NC3=C(C=N2)/C=C(C(=O)N3C)/C4=C(Cl)C=CC=C4Cl	476	469	464	467	467	460	417	455	407
CN1C(=O)\C(=C/C(=C1/NC2=C(F)C=C(I)C=C2)C(=O)NOCCO)C	441	423	451	257	281	253	398	403	342
Fc1cc(-c2cccc3ncc(-c4cnn(C5CCNCC5)c4)nc23)cc(F)c1CN1CCOCC1	407	423	412	378	409	412	379	378	385
O=C(Cc1cccc(OC(F)(F)F)c1)Nc1ccc(CCCCc2nnc(NC(=O)Cc3ccccn3)s2)nn1	426	386	387	407	388	394	381	276	277
CC(=O)N1CCN(c2ccc(OCc3nn(C)c(C)c3-c3cccc4c(CCCOc5cc(C)c(Cl)c(C)c5)c(C(=O)O)n(Cc5cccnc5)c34)cc2)CC1	461	459	467	469	471	457	453	413	441
Cc1cc(Nc2ncc(Cl)c(Nc3ccccc3[S+](=O)([O-])C(C)C)n2)c(OC(C)C)cc1C1CCNCC1	449	425	442	396	395	395	380	393	392
C1Cc2[nH]nc(-c3nn[nH]n3)c2C1	470	458	472	460	460	456	464	438	445
O=C1\C=C(/OC2=C1C=CC=C2C3=CC=CC=C3)N4CCOCC4	432	393	397	410	392	390	–	–	–
CO/N=C(/C(=O)N[C@@H]1C(=O)N2C(C(=O)O)=C(Cn3ccc(=N)n3CCO)CS[C@H]12)c1csc(N)n1	460	452	463	421	446	459	413	461	467
CC(C)C[C@H](CN)CC(=O)O	450	458	455	460	445	458	449	452	451
CCOC(=O)C/1=C(C)/NC(=S)NC1C2=CC=CC(=C2)O (stereo not given)	251	246	281	286	272	300	242	242	263
COC[C@H](NC(=O)c1cnc(C)s1)C(=O)N[C@@H](COC)C(=O)N[C@@H](Cc1ccccc1)C(=O)[C@@]1(C)CO1	251	245	231	265	273	271	214	213	199
COc1ccc(/C=C\c2cc(OC)c(OC)c(OC)c2)cc1O	48.7	57	71.5	197	126	155	85.1	50.9	70
NC(=O)N1c2ccccc2CC(=O)c2ccccc21	461	456	464	408	444	466	466	427	389
CNC(=O)[C@H](Cc1ccccc1)NC(=O)[C@H](CC(C)C)[C@H](CSc1cccs1)C(=O)NO	409	373	386	433	402	415	405	389	340
O=C(O)c1ccc2cc(-c3ccc(O)c(C45CC6CC(CC(C6)C4)C5)c3)ccc2c1	299	285	277	323	330	311	287	282	266
O=C1Nc2ccccc2/C1=C1\Nc2ccccc2C1=O	459	467	471	448	447	442	–	–	–
COc1cc(N2CCC(O)CC2)ccc1Nc1cc(Nc2ccccc2[S+](=O)([O-])C(C)C)c2cc[nH]c2n1	411	392	400	331	414	404	–	–	–
N[C@@H](C(=O)N[C@H]1[C@H]2SC\C(=C(/N2C1=O)C(O)=O)Cl)C3=CC=CC=C3	462	457	466	462	430	441	436	465	468
CCCCCCCCCCCC(CC1OC(=O)C1CCCCCC)OC(=O)C(CC(C)C)NC=O (stereo not given)	443	440	443	452	461	456	407	343	391
Cc1ccc(NC(=O)C2(c3ccc4c(c3)OC(F)(F)O4)CC2)nc1-c1cccc(C(=O)O)c1	268	253	260	252	246	264	241	202	232
CN1CCCN(C(=O)c2cccc(-c3ccc(/C=C4/C(=O)Nc5ccc(Cl)cc54)o3)c2)CC1	419	372	396	399	446	436	362	324	332

Structure (SMILES)	AUC of viability dose-response curve (P12-Ichikawa; HPLM + 10% dialyzed FBS)	AUC of viability dose-response curve (P12-Ichikawa; RPMI 5 mM glucose + 10% FBS)	AUC of viability dose-response curve (P12-Ichikawa; [1])	AUC of viability dose-response curve (NOMO1; HPLM + 10% dialyzed FBS)	AUC of viability dose-response curve (NOMO1; RPMI 5 mM glucose + 10% FBS)	AUC of viability dose-response curve (NOMO1; [1])	AUC of viability dose-response curve (SEM cells; HPLM + 10% dialyzed FBS)	AUC of viability dose-response curve (SEM cells; RPMI 5 mM glucose + 10% FBS)	AUC of viability dose-response curve (SEM cells; [1])
COc1cc2ncnc(-n3nc(-c4ccccn4)nc3N)c2cc1OC	447	436	413	437	406	418	360	326	317
O=C(NC1CCNCC1)c1n[nH]cc1NC(=O)c1c(Cl)cccc1Cl	345	341	357	321	332	324	319	323	326
COc1cc(N2CCC(C(N)=O)CC2)ccc1Nc1nc(N)c(Cl)c(Nc2ccccc2[S+](=O)([O-])C(C)C)n1	445	421	410	381	393	372	360	375	350
CN(C)Cc1ccc(-c2nc3cccc4c3n2CCNC4=O)cc1	461	463	466	464	458	452	455	459	462
CN(C)CCOC(c1ccccc1)c1ccccc1	471	473	469	470	459	467	460	473	452
Cc1ccc(NC(=O)c2ccc(CN3CCN(C)CC3)cc2)cc1Nc1nccc(-c2cccnc2)n1	460	470	477	477	459	454	465	468	467
CCCCN(CCCC)CCC(O)c1cc2c(Cl)cc(Cl)cc2c2cc(C(F)(F)F)ccc12 (stereo not given)	466	459	452	453	459	471	442	408	415
Fc1ccc(C(c2ccc(F)cc2)N2CCN(C/C=C/c3ccccc3)CC2)cc1	456	462	447	432	467	457	404	392	424
COc1cc2c(N3CCN(C(=O)Nc4ccc(OC(C)C)cc4)CC3)ncnc2cc1OCCCN1CCCCC1	406	360	369	395	357	371	–	–	–
O=C(NC1CCOCC1)c1ccc(-c2cc(-c3c[nH]nc3-c3ccccn3)ccn2)cc1	463	448	435	458	465	466	464	474	453
C[C@H](NC(=O)C(=O)Nc1ccccc1C(C)(C)C)C(=O)N[C@@H](CC(=O)O)C(=O)COc1c(F)c(F)cc(F)c1F	440	427	425	428	445	450	395	391	390
CC/1=C/N([C@@H]2C[C@@H](O)[C@H](CO)O2)C(=O)NC1=O	388	353	338	453	408	413	–	–	–
Cc1ccc(-n2nc(C(C)(C)C)cc2NC(=O)Nc2ccc(OCCN3CCOCC3)c3ccccc23)cc1	477	463	473	474	460	471	403	399	398
COc1cc2nccc(Oc3ccc(NC(=O)C4(C(=O)Nc5ccc(F)cc5)CC4)cc3)c2cc1OC	436	440	427	433	457	442	–	–	–
C=C(C)[C@@H]1CC[C@]2(C)CC[C@]3(C)[C@H](CC[C@@H]4[C@@]5(C)CC[C@H](O)C(C)(C)[C@@H]5CC[C@]43C)[C@@H]12	458	467	459	444	466	446	–	–	–
ClC1=CC=C(CCCOC/2=N/NC(=O)C(=C2NCC3=CN=CC=C3)/Br)C=C1	387	430	382	344	390	392	323	358	391
Cc1c[nH]c(/C=C2\C(=O)Nc3ccccc32)c1CCC(=O)O	436	413	390	399	440	428	–	–	–
Clc1cccc(-c2nnnn2Cc2cccnc2)c1Cl	397	385	382	362	365	357	359	348	375
Cc1[nH]c(/C=C2\C(=O)Nc3ccc([S+](=O)([O-])N(C)c4cccc(Cl)c4)cc32)c(C)c1C(=O)N1CCN(C)CC1	436	430	432	451	462	456	393	379	368
Cc1nc(Nc2ncc(C(=O)Nc3c(C)cccc3Cl)s2)cc(N2CCN(CCO)CC2)n1	358	396	398	448	461	447	–	–	–
CN(N=O)C(=O)N[C@H]1C(O)OC(CO)[C@@H](O)[C@@H]1O (stereo not given in full)	397	383	368	428	391	375	–	–	–
CC[C@]1(O)C[C@H]2CN(CCC3=C([NH]C4=C3C=CC=C4)[C@@](C2)(C(=O)OC)C5=CC6=C(C=C5OC)N(C=O)[C@H]7[C@](O)([C@H](OC(C)=O)[C@]8(CC)\C=C/C[N@@]9CC[C@]67[C@H]89)C(=O)OC)C1	185	180	224	272	239	264	–	–	–
O=C/1\C=C(/OC(=C1)/C2=C3SC4=C(SC3=CC=C2)C=CC=C4)N5CCOCC5	–	–	–	–	–	–	417	409	411
